From patent US20250235456A1, “METHODS OF USE FOR AZA-QUINAZOLINE COMPOUNDS” (Iambic Therapeutics, Inc., priority 2024, published 2025) come the findings set out here.

Type in all cases: biochemical
The target of one experiment is CDK4/Cyclin D1 (Homo sapiens (Human), UniProt P11802). The experiment in a line: CDK4/Cyclin D1 CHEF Assay. The following applies: AQT; read-out: CDK4/CyclinD1 AQT IC50. The source says:
CDK4/Cyclin D1 CHEF Assay
The purpose of CDK4/Cyclin Dl assay is to evaluate the inhibition (% inhibition and IC50 values) of small molecule inhibitors by using a Chelation-Enhance Fluorescence (CHEF) assay. In a CHEF assay, phosphorylation of a peptide substrate results in proportional increase in fluorescence. CHEF kinase assay use peptide substrates containing a synthetic alpha-amino acid with a side chain bearing an 8-hydroxyquinoline derivative (sulfonamido-oxide, Sox). Upon phosphorylation of a nearby serine, threonine or tyrosine and in the presence of Mg(II), the spectral properties of the Sox residue are altered, emitting 485 nm wavelength light when excited with a 360 nm wavelength light source. CDK4/Cyclin D1 catalyzes the phosphoryl transfer to the SOX-labeled substrate peptide AQT0258 from Assayquant Technologies. […] The reaction was initiated with the addition of substrate solution, following a 30-minute pre-incubation of enzyme and inhibitor at 22° C. in the reaction mix. Reactions were allowed to proceed for 3 hrs at 22° C., followed by fluorescence read of the reaction. The IC50 determinations were made from a plot of the fractional velocity as a function of inhibitor concentration fit to the 4 parameters IC50 equation.

A further experiment addresses CDK1/Cyclin B1 (Homo sapiens (Human), UniProt P06493). The experiment can be described thus: CDK1/Cyclin B1 ADP-Glo Kinase Assay. How it is done:
CDK1/Cyclin B1 ADP-Glo Kinase Assay
(§1) The purpose of CDK1/Cyclin Bi assay is to evaluate the inhibition (% inhibition and IC50 values) of small molecule inhibitors by using a Luminescent based ADP-Glo assay. CDK1/Cyclin B1 catalyzes the production of ADP from ATP. ADP-Glo assay monitors ADP producing biochemical reactions. ADP-Glo is performed in 2 steps upon completion of kinase reaction: a combined termination of kinase reaction and depletion of remaining ATP in the first step, and conversion of generated ADP to ATP and the newly produced ATP to light output using luciferase/luciferin reaction in the second step. The luminescent signal generated is proportional to the ADP concentration produced and is correlated with the kinase activity. CDK1/Cyclin B1 was purchased from Carna (Cat 04-102). […] The assay was initiated with the addition of ATP-containing substrate solution, following a 30-minute pre-incubation of enzyme and inhibitor at room temperature in the reaction mixture. The reaction was stopped after 90 minutes at room temperature by the addition of 10 μL of ADP-GLO Reagent. After a 90 minute incubation, 20 μL of Kinase Detection Reagent was added. Samples were incubated for 40 minutes, after which plate well luminescence was measured on a Envision microplate reader. The IC50 determinations were made from a plot of the fractional velocity as a function of inhibitor concentration fit to the 4 parameters IC50 equation.

The next experiment deals with CDK6/Cyclin D3 (Homo sapiens (Human), UniProt Q00534). The experiment in a line: CDK6/Cyclin D3 ADP-Glo Kinase Assay. The note with it: read-out: CDK6/CyclinD3 IC50. How it is done: CDK6/Cyclin D3 ADP-Glo Kinase Assay
as §1, with “of the CDK6/Cyclin D3” for “of CDK1/Cyclin Bi”, “values) in the presence” for “values)”, “assay. CDK6/Cyclin D3” for “assay. CDK1/Cyclin B1”, “activity. CDK6/Cychin D3” for “activity. CDK1/Cyclin B1”, “from Carna.” for “from Carna (Cat 04-102).”, “a 90-minute” for “a 90 minute”
In general terms: ADP-Glo first removes unused ATP, then detects ADP through luciferase.

Sequence of CDK4/Cyclin D1 (P11802 whole entry, species assumed): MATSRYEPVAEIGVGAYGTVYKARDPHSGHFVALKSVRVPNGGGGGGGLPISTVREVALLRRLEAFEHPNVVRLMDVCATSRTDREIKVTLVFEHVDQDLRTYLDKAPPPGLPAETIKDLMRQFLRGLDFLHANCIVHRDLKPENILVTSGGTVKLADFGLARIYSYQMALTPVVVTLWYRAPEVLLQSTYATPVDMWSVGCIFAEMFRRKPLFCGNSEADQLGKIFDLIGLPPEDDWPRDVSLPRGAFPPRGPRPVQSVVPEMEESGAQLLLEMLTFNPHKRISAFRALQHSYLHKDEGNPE
Sequence of CDK4/Cyclin D1 (P24385 whole entry partner, species assumed): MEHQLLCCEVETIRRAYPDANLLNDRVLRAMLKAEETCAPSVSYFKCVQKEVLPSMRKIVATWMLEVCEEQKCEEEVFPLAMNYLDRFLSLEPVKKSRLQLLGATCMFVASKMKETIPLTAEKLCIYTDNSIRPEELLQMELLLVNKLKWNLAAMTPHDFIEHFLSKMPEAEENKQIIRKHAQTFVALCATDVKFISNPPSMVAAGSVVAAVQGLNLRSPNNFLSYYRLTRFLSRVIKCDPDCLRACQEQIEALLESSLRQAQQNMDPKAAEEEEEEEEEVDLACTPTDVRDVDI
Sequence of CDK1/Cyclin B1 (P06493 whole entry): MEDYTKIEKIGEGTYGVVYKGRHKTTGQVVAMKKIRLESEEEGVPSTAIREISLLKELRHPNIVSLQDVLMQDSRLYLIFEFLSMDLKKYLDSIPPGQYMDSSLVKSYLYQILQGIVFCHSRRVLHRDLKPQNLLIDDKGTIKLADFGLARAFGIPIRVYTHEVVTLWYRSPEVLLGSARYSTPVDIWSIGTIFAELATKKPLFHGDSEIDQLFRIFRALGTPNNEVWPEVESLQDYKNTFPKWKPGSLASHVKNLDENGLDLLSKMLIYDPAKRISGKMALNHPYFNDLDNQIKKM
Sequence of CDK1/Cyclin B1 (P14635 whole entry partner): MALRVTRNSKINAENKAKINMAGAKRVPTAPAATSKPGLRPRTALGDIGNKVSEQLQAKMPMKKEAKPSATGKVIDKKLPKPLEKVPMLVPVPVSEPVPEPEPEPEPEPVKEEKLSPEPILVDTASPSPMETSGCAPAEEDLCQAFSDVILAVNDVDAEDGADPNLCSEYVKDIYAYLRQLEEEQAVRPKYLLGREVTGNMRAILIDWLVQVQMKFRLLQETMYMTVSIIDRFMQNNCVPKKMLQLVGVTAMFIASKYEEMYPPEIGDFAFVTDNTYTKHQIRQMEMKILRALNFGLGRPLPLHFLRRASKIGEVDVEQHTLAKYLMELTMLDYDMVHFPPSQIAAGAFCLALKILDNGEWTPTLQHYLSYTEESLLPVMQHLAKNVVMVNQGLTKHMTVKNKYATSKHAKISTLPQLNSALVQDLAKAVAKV
Sequence of CDK6/Cyclin D3 (Q00534 whole entry): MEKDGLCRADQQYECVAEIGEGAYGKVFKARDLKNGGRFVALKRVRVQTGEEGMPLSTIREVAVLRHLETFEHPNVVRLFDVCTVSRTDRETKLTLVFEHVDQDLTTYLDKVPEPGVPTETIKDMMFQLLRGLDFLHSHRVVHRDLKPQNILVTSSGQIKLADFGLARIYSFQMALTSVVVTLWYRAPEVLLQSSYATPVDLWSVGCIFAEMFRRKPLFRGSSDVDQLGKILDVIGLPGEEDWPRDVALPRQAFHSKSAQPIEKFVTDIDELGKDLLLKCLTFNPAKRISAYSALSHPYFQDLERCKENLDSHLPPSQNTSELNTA
Sequence of CDK6/Cyclin D3 (P30281 whole entry partner): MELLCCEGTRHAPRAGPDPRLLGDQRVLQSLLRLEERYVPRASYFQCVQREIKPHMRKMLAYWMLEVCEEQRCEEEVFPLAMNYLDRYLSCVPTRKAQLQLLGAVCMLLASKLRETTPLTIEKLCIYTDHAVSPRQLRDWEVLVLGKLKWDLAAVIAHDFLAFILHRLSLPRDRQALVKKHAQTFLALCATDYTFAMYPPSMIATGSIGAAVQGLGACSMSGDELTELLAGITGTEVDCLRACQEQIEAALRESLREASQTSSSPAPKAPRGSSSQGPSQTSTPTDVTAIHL

As for `Cc1cc2cnc(NC3CCN(S(=O)(=O)C4CC4)CC3)nc2c(N2CC3(CCNC3)C2)n1` [Compound 25, N-(1-(cyclopropylsulfonyl)piperidin-4-yl)-6-methyl-8-(2,6-diazaspiro[3.4]octan-2-yl) pyrido[3,4-d]pyrimidin-2-amine], the IC50 is under 200 nM on CDK4/Cyclin D1, 200 to 500 nM on CDK1/Cyclin B1 and under 200 nM at CDK6/Cyclin D3.

Turning to `Cc1cc2cnc(Nc3cc4c(cc3F)CN(S(C)(=O)=O)C4)nc2c(N2CC3(CCNC3)C2)n1` [Compound 39, N-(6-fluoro-2-(methylsulfonyl)isoindolin-5-yl)-6-methyl-8-(2,6-diazaspiro [3.4]octan-2-yl)pyrido[3,4-d]pyrimidin-2-amine], the IC50 at CDK4/Cyclin D1 is 200 to 500 nM; at CDK1/Cyclin B1 it was over 2000 nM; at CDK6/Cyclin D3, over 2000 nM.

On to `Cc1cc2cnc(N[C@H]3CC[C@H](CN(C)C)CC3)nc2c(N2CCC3(C2)CC3(F)F)n1` (stereo partly shown) [Compound 40, 8-(1,1-difluoro-5-azaspiro[2.4]heptan-5-yl)-N-((1r,4r)-4-((dimethylamino)methyl)cyclohexyl)-6-methylpyrido[3,4-d]pyrimidin-2-amine], for which the IC50 on CDK4/Cyclin D1 is under 200 nM; against CDK1/Cyclin B1 it was over 2000 nM; on CDK6/Cyclin D3, under 200 nM.

On to `Cc1cc2cnc(Nc3ccc4c(c3)CN(C)C4)nc2c(N2CC3(C2)CN(C2CC2)C3)n1` [Compound 44, 8-(6-cyclopropyl-2,6-diazaspiro[3.3]heptan-2-yl)-6-methyl-N-(2-methylisoindolin-5-yl)pyrido[3,4-d]pyrimidin-2-amine], for which the IC50 at CDK4/Cyclin D1 was 200 to 500 nM; against CDK1/Cyclin B1, over 2000 nM.

For the compound `Cc1cc2cnc(N[C@H]3CC[C@@H](CN(C)C)CC3)nc2c(N2CCC3(C2)CC3(F)F)n1` (stereo partly shown) [Compound 45, 8-(1,1-difluoro-5-azaspiro[2.4]heptan-5-yl)-N-((1s,4s)-4-((dimethylamino)methyl)cyclohexyl)-6-methylpyrido[3,4-d]pyrimidin-2-amine], the IC50 on CDK4/Cyclin D1 is under 200 nM; against CDK1/Cyclin B1, over 2000 nM.

Regarding `Cc1cc2cnc(NC3CCN(S(C)(=O)=O)CC3)nc2c(N2CCC3(CCC3(F)F)C2)n1` (stereo not shown) [Compound 52, 8-(1,1-difluoro-6-azaspiro[3.4]octan-6-yl)-6-methyl-N-(1-(methylsulfonyl)piperidin-4-yl)pyrido[3,4-d]pyrimidin-2-amine], the IC50 on CDK4/Cyclin D1, on CDK1/Cyclin B1 and at CDK6/Cyclin D3 was under 200 nM each time.

Regarding `Cc1cc2cnc(NC3CCN(S(C)(=O)=O)CC3)nc2c(N2CCC3(C2)CC(F)(F)C3)n1` [Compound 53, 8-(2,2-difluoro-6-azaspiro[3.4]octan-6-yl)-6-methyl-N-(1-(methylsulfonyl)piperidin-4-yl)pyrido[3,4-d]pyrimidin-2-amine], the IC50 at CDK4/Cyclin D1 is under 200 nM; on CDK1/Cyclin B1, over 2000 nM; on CDK6/Cyclin D3, under 200 nM.

Consider `Cc1cc2cnc(NC3CCN(S(C)(=O)=O)CC3)nc2c(N2CCC3(CC3)C2)n1` [Compound 54, 6-methyl-N-(1-(methylsulfonyl)piperidin-4-yl)-8-(5-azaspiro[2.4]heptan-5-yl)pyrido[3,4-d]pyrimidin-2-amine], for which the IC50 at CDK4/Cyclin D1, at CDK1/Cyclin B1 and on CDK6/Cyclin D3 was under 200 nM throughout.

For `O=S(=O)(CC1CCC1)N1CCC(Nc2ncc3cc(C(F)F)nc(N4CC5(CCNC5)C4)c3n2)CC1` [Compound 55], the IC50 on CDK4/Cyclin D1, against CDK1/Cyclin B1 and at CDK6/Cyclin D3 was under 200 nM each time.

`Cc1cc2cnc(NC3CCN(S(=O)(=O)C4CC4)CC3)nc2c(N2CC(O)(C3CC3)C2)n1` [Compound 56, 3-cyclopropyl-1-(2-((1-(cyclopropylsulfonyl)piperidin-4-yl)amino)-6-methylpyrido[3,4-d]pyrimidin-8-yl)azetidin-3-ol]: the IC50 at CDK4/Cyclin D1, at CDK1/Cyclin B1 and on CDK6/Cyclin D3 was under 200 nM each time.

For `Cc1cc2cnc(NC3CCN(S(=O)(=O)C4CC4)CC3)nc2c(N2CCC(OC(F)F)C2)n1` (stereo not shown) [Compound 58, N-(1-(cyclopropylsulfonyl)piperidin-4-yl)-8-(3-(difluoromethoxy)pyrrolidin-1-yl)-6-methylpyrido[3,4-d]pyrimidin-2-amine], the IC50 at CDK4/Cyclin D1, on CDK1/Cyclin B1 and at CDK6/Cyclin D3 was under 200 nM throughout.

For the compound `CS(=O)(=O)N1CCC(Nc2ncc3cc(C4CC4)nc(N4CC(F)(F)C5(CNC5)C4)c3n2)CC1` [Compound 60, 6-cyclopropyl-8-(8,8-difluoro-2,6-diazaspiro[3.4]octan-6-yl)-N-(1-(methylsulfonyl)piperidin-4-yl)pyrido[3,4-d]pyrimidin-2-amine], the IC50 on CDK4/Cyclin D1, on CDK1/Cyclin B1 and on CDK6/Cyclin D3 was under 200 nM each time.

With `Cc1cc2cnc(NC3CCN(S(=O)(=O)C4CC4)CC3)nc2c(N2CC3(CCNCC3(F)F)C2)n1` [Compound 61, N-(1-(cyclopropylsulfonyl)piperidin-4-yl)-8-(5,5-difluoro-2,7-diazaspiro[3.5]nonan-2-yl)-6-methylpyrido[3,4-d]pyrimidin-2-amine], the IC50 on CDK4/Cyclin D1, against CDK1/Cyclin B1 and on CDK6/Cyclin D3 was under 200 nM each time.

Take `Cc1cc2cnc(NC3CCN(S(=O)(=O)C4CC4)CC3)nc2c(N2CC(C#N)(CCF)C2)n1` [Compound 68, 1-(2-((1-(cyclopropylsulfonyl)piperidin-4-yl)amino)-6-methylpyrido[3,4-d]pyrimidin-8-yl)-3-(2-fluoroethyl) azetidine-3-carbonitrile]: the figures for the IC50 on CDK4/Cyclin D1 and against CDK1/Cyclin B1 were 200 to 500 nM and over 2000 nM, respectively.

Turning to `Cc1cc2cnc(NC3CCN(S(C)(=O)=O)CC3)nc2c(C2CC(C)(CO)C2)n1` (stereo not shown) [Compound 69, (1-methyl-3-(6-methyl-2-((1-(methylsulfonyl)piperidin-4-yl)amino)pyrido[3,4-d]pyrimidin-8-yl)cyclobutyl) methanol], the IC50 on CDK4/Cyclin D1 and at CDK6/Cyclin D3 was under 200 nM throughout.

In the case of `Cc1cc2cnc(NC3CCN(S(=O)(=O)C4CC4)CC3)nc2c(N2CC(N3CC(F)C3)C2)n1` [Compound 72, N-(1-(cyclopropylsulfonyl)piperidin-4-yl)-8-(3-fluoro-[1,3′-biazetidin]-1′-yl)-6-methylpyrido[3,4-d]pyrimidin-2-amine], the IC50 at CDK4/Cyclin D1 and at CDK6/Cyclin D3 was 200 to 500 nM in each case.

Consider `Cc1cc2cnc(NC3CCN(S(C)(=O)=O)CC3)nc2c(N2CC3(CC(O)C3)C2)n1` [Compound 73, 2-(6-methyl-2-((1-(methylsulfonyl)piperidin-4-yl)amino)pyrido[3,4-d]pyrimidin-8-yl)-2-azaspiro[3.3]heptan-6-ol], for which the figures for the IC50 at CDK4/Cyclin D1 and on CDK6/Cyclin D3 were under 200 nM and 200 to 500 nM, respectively.

Consider `Cc1cc2cnc(NC3CCN(S(=O)(=O)C4CC4)CC3)nc2c(N2CC(CS(C)(=O)=O)C2)n1` [Compound 74, N-(1-(cyclopropylsulfonyl)piperidin-4-yl)-6-methyl-8-(3-((methylsulfonyl)methyl)azetidin-1-yl)pyrido[3,4-d]pyrimidin-2-amine], for which the IC50 at CDK4/Cyclin D1 and on CDK6/Cyclin D3 was 200 to 500 nM each time.

As for `COCCN1CC2(CC(c3nc(C4CC4)cc4cnc(NC5CCN(S(=O)(=O)CC6CCC6)CC5)nc34)C2)C1` [Compound 80, N-(1-((cyclobutylmethyl)sulfonyl)piperidin-4-yl)-6-cyclopropyl-8-(2-(2-methoxyethyl)-2-azaspiro[3.3]heptan-6-yl)pyrido[3,4-d]pyrimidin-2-amine], the IC50 at CDK4/Cyclin D1 and at CDK6/Cyclin D3 was under 200 nM each time.
